{
  "source": "patent US20190216093A1",
  "about": "“COMPOSITIONS AND RELATED METHODS FOR AGRICULTURE” (priority 2017, published 2019)",
  "molecules": {"B1": {"name": "NCR335: cationic NCR peptide (peptide)", "chain": "MQIGKNMVETPKLDYVIIFFFLYFFFRQMIILRLNTTFRPLNFKMLRFWGQNRNIMKHRGQKVHFSLILSDCKTNKDCPKLRRANVRCRKSYCVPI"}},
  "key": {"[1]": {"test_system": "ApGLNT1 glutamine transporter", "details": "Price et al., 2014 PNAS; cited from earlier work"}, "[2]": {"test_system": "Acyrthosiphon pisum aphids", "assay": "Aphid survival monitoring", "type": "in vivo"}, "[3]": {"test_system": "endosymbiotic Buchnera", "assay": "Buchnera/aphid DNA copy numbers by qPCR", "type": "in vivo, Buchnera aphidicola", "method": "(§1) After 7 days of treatment, DNA was extracted from multiple aphids from each treatment group. Briefly, the aphid body surface was sterilized by dipping the aphid into a 6% bleach solution for approximately 5 seconds. Aphids were then rinsed in sterile water and DNA was extracted from each individual aphid using a DNA extraction kit (Qiagen, DNeasy kit) according to manufacturer's instructions. DNA concentration was measured using a nanodrop nucleic acid quantification, and Buchnera and aphid DNA copy numbers were measured by qPCR. […]\n(§2) After 8 days of treatment, DNA was extracted from multiple aphids from each treatment group. Briefly, the aphid body surface was sterilized by dipping the aphid into a 6% bleach solution for approximately 5 seconds. Aphids were then rinsed in sterile water and DNA was extracted from each individual aphid using a DNA extraction kit (Qiagen, DNeasy kit) according to manufacturer's instructions. DNA concentration was measured using a nanodrop nucleic acid quantification, and Buchnera and aphid DNA copy numbers were measured by qPCR.\nas §2, with “from the remaining” for “from multiple”, “aphids in” for “aphids from”\n(§3) After 7 of treatment, DNA was extracted from the remaining aphids in each treatment group. Briefly, the aphid body surface was sterilized by dipping the aphid into a 6% bleach solution for approximately 5 seconds. Aphids were then rinsed in sterile water and DNA was extracted from each individual aphid using a DNA extraction kit (Qiagen, DNeasy kit) according to manufacturer's instructions. DNA concentration was measured using a nanodrop nucleic acid quantification, and Buchnera and aphid DNA copy numbers were measured by qPCR.\nas §3, with “Briefly,” for “After 7 of treatment, DNA was extracted from the remaining aphids in each treatment group. Briefly,”\nas §1, with “3” for “7”, “the remaining living” for “multiple”"}, "[4]": {"test_system": "Acyrthosiphon pisum aphids", "assay": "Aphid developmental stage monitoring", "type": "in vivo", "details": "for aphids that did not mature further than the 4th instar stage: eNASCO, 11 days post-treatment"}, "[5]": {"test_system": "Acyrthosiphon pisum aphids", "assay": "Aphid fecundity (offspring production)", "type": "in vivo", "details": "for aphid reproduction: 10 or 100 uM pantothenol", "method": "In addition, the developmental stage (1st, 2nd, 3rd, 4th, 5th, and 5R (5th that has reproduced) instar) was determined daily throughout the experiment. Once an aphid reached the 4th instar stage, they were given their own artificial feeding system in a deep petri dish so that fecundity could be monitored once they reached adulthood.\n(§4) For adult aphids, new nymphs were counted daily and then discarded. At the end of the experiments, fecundity was measured in two ways: 1) the mean day at which the first offspring for the treatment group was determined and 2) the mean number of offspring produced daily once the aphid reached adulthood. Pictures of aphids were taken throughout the experiment to evaluate size differences between treatment groups. […]"}, "[6]": {"test_system": "Acyrthosiphon pisum aphids", "assay": "Aphid body area (size) measurement from images", "type": "in vivo", "details": "eNASCO; 10 or 100 uM pantothenol in artificial diet; by 3 days post-treatment", "method": "For adult aphids, new nymphs were counted daily and then discarded. At the end of the experiments, fecundity was determined as the mean number of offspring produced daily once the aphid reached adulthood. Pictures of aphids were taken throughout the experiment to evaluate size differences between treatment groups.\nEach treatment group received approximately the same number of individuals from each of the collection plant. For each treatment, 20 aphids were placed onto each leaf. Aphids were monitored daily for survival and dead aphids were removed when they were discovered. In addition, the developmental stage (1st, 2nd, 3rd, 4th, 5th instar, and 5R, representing a reproducing 5th instar) was determined daily throughout the experiment. […]\nas §4, with “adulthood.” for “adulthood. Pictures of aphids were taken throughout the experiment to evaluate size differences between treatment groups.”\nAphids LSR-1 (which harbor only Buchnera), Acyrthosiphon pisum were grown on fava bean plants (Vroma vicia faba from Johnny's Selected Seeds) in a climate-controlled incubator (16 h light/8 h dark photoperiod; 60±5% RH; 25±2° C.). […] Aphids were monitored daily for survival and dead aphids were removed from the deep petri dish when they were discovered. […]"}, "[7]": {"test_system": "Plasmodium falciparium", "details": "previous study (Saliba et al., 2005); cited from earlier work"}, "[8]": {"test_system": "gram-negative and gram-positive organisms", "details": "cited from earlier work"}, "[9]": {"test_system": "gram-negative and gram-positive bacteria as well as fungi", "details": "cited from earlier work"}, "[10]": {"details": "LSR-1, 100 μg/ml rifampicin in artificial diet without essential amino acids, through plants"}},
  "note": "“Also recorded” adds a separate entry of the source.",
  "data": [
    {"molecule": "N=C(N)NCCC[C@H](N)C(=O)O", "note": "[arginine]", "values": [
      {"measurement": "glutamine uptake", "setting": "[1]", "value": "inhibits glutamine uptake by the glutamine transporter"}
    ]},
    {"molecule": "Cc1cc2c(C(C)C)c(O)c(O)c(C=O)c2c(O)c1-c1c(C)cc2c(C(C)C)c(O)c(O)c(C=O)c2c1O", "note": "[gossypol, gossypol acetic acid]", "values": [
      {"measurement": "all aphids succumbed to treatment by", "setting": "[2]; 0.5% gossypol", "value": "≤ 4", "unit": "days"},
      {"measurement": "aphids began dying after", "setting": "[2]; 0.5% gossypol", "value": 2, "unit": "days"},
      {"measurement": "Buchnera/aphid DNA copies, fold less than control", "setting": "[3]; 0.25 and 0.5% of gossypol, 5 or 13 days", "value": "~4 -fold less"}
    ]},
    {"molecule": "CC(=O)CCC(=O)O", "note": "[levulinic acid]", "values": [
      {"measurement": "aphid developmental stage", "setting": "[4]; eNASCO 1st and 2nd instar, 0.03 or 0.3% levulinic acid, leaf injection and through plant", "value": "Development was delayed; also recorded: resulted in delayed aphid development"},
      {"measurement": "aphids that did not mature further than the 4th instar stage", "setting": "[4]; 0.03% levulinic acid", "value": "~23", "unit": "%"},
      {"measurement": "aphids that did not mature further than the 4th instar stage", "setting": "[4]; 0.3% levulinic acid", "value": "~63", "unit": "%"},
      {"measurement": "aphid mortality", "setting": "[2]; eNASCO, 0.03% levulinic acid, difference did not reach statistical significance", "value": "higher mortality compared to control treated aphids"},
      {"measurement": "aphid survival", "setting": "[2]; eNASCO, 0.03 or 0.3% levulinic acid", "value": "dose-dependent decrease in survival; also recorded: decrease in insect survival"},
      {"measurement": "aphid survival", "setting": "[2]; eNASCO, 0.3% levulinic acid, 11-day experiment", "value": "survival was significantly less"},
      {"measurement": "Buchnera/aphid DNA copies, fold less than control", "setting": "[3]; 0.03 or 0.3% levulinic acid in water, 7 days", "value": "~6 -fold less"},
      {"measurement": "Buchnera/aphid ratio", "setting": "[3]; 0.03 or 0.3% levulinic acid, seven and eleven days post-treatment", "value": "reduced endosymbiotic Buchnera"}
    ]},
    {"molecule": "CC(C)(CO)[C@@H](O)C(=O)NCCCO", "note": "[pantothenol]", "values": [
      {"measurement": "aphid developmental stage", "setting": "[4]; eNASCO 1st and 2nd instar, 10 or 100 uM pantothenol in artificial diet without essential amino acids, through plants", "value": "Development was delayed"},
      {"measurement": "aphid developmental stage", "setting": "[4]; eNASCO 1st and 2nd instar, 10 or 100 uM pantothenol in artificial diet without essential amino acids, through plants, listed as Pantothenol", "value": "delayed aphid development"},
      {"measurement": "aphid developmental stage", "setting": "[4]; eNASCO 1st instar, leaf coating, 10 uM pantothenol in 0.025% Silwet L-77", "value": "did not affect aphid development"},
      {"measurement": "aphid survival", "setting": "[2]; eNASCO, 10 or 100 uM pantothenol in artificial diet, through plants", "value": "increased aphid mortality; also recorded: negatively affected aphid fitness"},
      {"measurement": "aphid survival rate", "setting": "[2]; eNASCO, leaf coating, 10 uM pantothenol", "value": "lower survival rates than aphids placed on coated leaves with the control solution"},
      {"measurement": "aphid survival rate", "setting": "[2]; eNASCO, leaf coating, 10 uM pantothenol, listed as Pantothenol", "value": "resulted in aphid death"},
      {"measurement": "mean number of offspring per day produced by reproducing aphids", "setting": "[5]; 10 uM pantothenol (control approximately 7)", "value": "approximately 4 offspring/day"},
      {"measurement": "mean number of offspring per day produced by reproducing aphids", "setting": "[5]; 100 uM pantothenol (control approximately 7)", "value": "~5", "unit": "offspring/day"},
      {"measurement": "aphid reproduction", "setting": "[5]", "value": "loss of aphid reproduction"},
      {"measurement": "aphid reproduction", "setting": "[5]; listed as Pantothenol", "value": "resulted in loss of reproduction"},
      {"measurement": "mean day aphids began reproducing", "setting": "[5]; all treatment groups (10 and 100 uM pantothenol)", "value": 7, "unit": "days"},
      {"measurement": "Buchnera/aphid DNA copies", "setting": "[3]; 10 or 100 uM pantothenol, 8 days", "value": "does not affect Buchnera/aphid DNA copy number directly"},
      {"measurement": "Buchnera/aphid DNA copies", "setting": "[3]; 10 or 100 uM pantothenol, 8 days, listed as Pantothenol", "value": "did not affect endosymbiotic Buchnera"},
      {"measurement": "aphid area", "setting": "[6]", "value": "drastic effect of pantothenol treatment; also recorded: smaller in area than untreated controls"},
      {"measurement": "growth of Plasmodium falciparium", "setting": "[7]", "value": "inhibits the growth of Plasmodium falciparium"}
    ]},
    {"molecule": "CO[C@H]1/C=C/O[C@@]2(C)Oc3c(C)c(O)c4c(O)c(c(/C=N/N5CCN(C)CC5)c(O)c4c3C2=O)NC(=O)/C(C)=C\\C=C\\[C@H](C)[C@H](O)[C@@H](C)[C@@H](O)[C@@H](C)[C@H](OC(C)=O)[C@@H]1C", "note": "[rifampicin, reference compound]", "values": [
      {"measurement": "all aphids succumbed to treatment by", "setting": "[2]; [10]", "value": "≤ 9", "unit": "days"},
      {"measurement": "aphids began dying after", "setting": "[2]; [10]", "value": 1, "unit": "days"},
      {"measurement": "Buchnera/aphid DNA copies, fold less than control", "setting": "[3]; LSR-1, 100 μg/ml rifampicin through plants, 7 days of treatment", "value": "~4 -fold less"}
    ]},
    {"molecule": "O=C/C=C/c1ccccc1", "note": "[trans-cinnemaldehyde]", "values": [
      {"measurement": "aphid developmental stage", "setting": "[4]; 5% trans-cinnemaldehyde", "value": "remained at the 1st instar stage throughout the course of the experiment"},
      {"measurement": "aphid developmental stage", "setting": "[4]; LSR-1 1st and 2nd instar, trans-cinnemaldehyde 0.05%, 0.5%, 5% in water, leaf perfusion and through plants, 3 days", "value": "none of the aphids matured past the second instar stage"},
      {"measurement": "aphid developmental stage", "setting": "[4]; LSR-1 1st and 2nd instar, trans-cinnemaldehyde 0.05%, 0.5%, 5% in water, leaf perfusion and through plants, 3 days, listed as Trans-cinnemaldehyde", "value": "resulted in delayed aphid development"},
      {"measurement": "aphid survival rate", "setting": "[2]; 0.05%, 0.5%, and 5% trans-cinnemaldehyde, 3 days", "value": "dose-dependent decrease in survival; also recorded: significantly lower"},
      {"measurement": "Buchnera/aphid DNA copies, fold less than control", "setting": "[3]; 0.5 and 5% of trans-cinnemaldehyde, 3 days", "value": "~870 -fold less"},
      {"measurement": "Buchnera/aphid DNA copies", "setting": "[3]; lowest concentration of trans-cinnemaldehyde (0.5%), 3 days", "value": "high ratios of Buchnera/aphid DNA copies"},
      {"measurement": "Buchnera/aphid DNA (symbiont titer)", "setting": "[3]; trans-cinnemaldehyde 0.05%, 0.5%, 5%, 3 days post-treatment", "value": "reduced endosymbiotic Buchnera"},
      {"measurement": "antimicrobial activity", "setting": "[8]", "value": "antimicrobial activity against both gram-negative and gram-positive organisms"}
    ]},
    {"molecule": "B1", "values": [
      {"measurement": "antimicrobial activities", "setting": "[9]", "value": "effective against gram-negative and gram-positive bacteria as well as fungi"}
    ]}
  ]
}
